The source of these data is PubChem BioAssay AID1259407 (Chemical Carcinogenesis Research Information System (CCRIS), 2018).

This data set has as its system CCRIS mutagenicity, Ames/micronucleus/aberration tests. The experiment in a line: CCRIS mutagenicity studies.
Setting [1] is: Test System: AMES SALMONELLA TYPHIMURIUM, Strain/Indicator: TA100, Metabolic Activation: NONE, Method: STANDARD PLATE.
The mark [2] stands for this setting: Test System: AMES SALMONELLA TYPHIMURIUM, Strain/Indicator: TA98, Metabolic Activation: NONE, Method: STANDARD PLATE.
[3] abbreviates: Test System: AMES SALMONELLA TYPHIMURIUM, Strain/Indicator: TA100, Metabolic Activation: RAT, LIVER, S-9, AROCLOR 1254, Method: STANDARD PLATE.

SMILES strings stand for the structures. The source made the active and inactive calls. No rule for the calls is given here.

Take `Cc1cc(=O)oc2cc(O)ccc12`: the mutagenic call was “inactive; negative” (Test System: AMES SALMONELLA TYPHIMURIUM, Strain/Indicator: TA98, Metabolic Activation: HAMSTER, LIVER, S-9, AROCLOR 1254, Method: PREINCUBATION); “inactive; negative” (Test System: AMES SALMONELLA TYPHIMURIUM, Strain/Indicator: TA98, Metabolic Activation: NONE, Method: PREINCUBATION); “inactive; negative” (Test System: AMES SALMONELLA TYPHIMURIUM, Strain/Indicator: TA98, Metabolic Activation: RAT, LIVER, S-9, AROCLOR 1254, Method: PREINCUBATION); “inactive; negative” (Test System: AMES SALMONELLA TYPHIMURIUM, Strain/Indicator: TA100, Metabolic Activation: HAMSTER, LIVER, S-9, AROCLOR 1254, Method: PREINCUBATION); “inactive; negative” (Test System: AMES SALMONELLA TYPHIMURIUM, Strain/Indicator: TA100, Metabolic Activation: NONE, Method: PREINCUBATION); “inactive; negative” (Test System: AMES SALMONELLA TYPHIMURIUM, Strain/Indicator: TA100, Metabolic Activation: RAT, LIVER, S-9, AROCLOR 1254, Method: PREINCUBATION). Also, the mutagenic call is “inactive; negative” (Test System: AMES SALMONELLA TYPHIMURIUM, Strain/Indicator: TA1535, Metabolic Activation: HAMSTER, LIVER, S-9, AROCLOR 1254, Method: PREINCUBATION); “inactive; negative” (Test System: AMES SALMONELLA TYPHIMURIUM, Strain/Indicator: TA1535, Metabolic Activation: NONE, Method: PREINCUBATION); “inactive; negative” (Test System: AMES SALMONELLA TYPHIMURIUM, Strain/Indicator: TA1535, Metabolic Activation: RAT, LIVER, S-9, AROCLOR 1254, Method: PREINCUBATION); “inactive; negative” (Test System: AMES SALMONELLA TYPHIMURIUM, Strain/Indicator: TA1537, Metabolic Activation: HAMSTER, LIVER, S-9, AROCLOR 1254, Method: PREINCUBATION); “inactive; negative” (Test System: AMES SALMONELLA TYPHIMURIUM, Strain/Indicator: TA1537, Metabolic Activation: NONE, Method: PREINCUBATION); “inactive; negative” (Test System: AMES SALMONELLA TYPHIMURIUM, Strain/Indicator: TA1537, Metabolic Activation: RAT, LIVER, S-9, AROCLOR 1254, Method: PREINCUBATION).
With `C(CCC1CO1)CC1CO1` (centres undefined), the mutagenic call is “active; positive” (Test System: AMES SALMONELLA TYPHIMURIUM, Strain/Indicator: TA97A, Metabolic Activation: NONE, Method: STANDARD PLATE); “active; positive” under setting [1]; “active; positive” (Test System: AMES SALMONELLA TYPHIMURIUM, Strain/Indicator: TA102, Metabolic Activation: NONE, Method: STANDARD PLATE); “active; positive” (Test System: AMES SALMONELLA TYPHIMURIUM, Strain/Indicator: TA102, Metabolic Activation: RAT LIVER S-9, AROCLOR 1254, Method: STANDARD PLATE); “active; positive” (Test System: AMES SALMONELLA TYPHIMURIUM, Strain/Indicator: TA1535, Metabolic Activation: NONE, Method: STANDARD PLATE); “inactive; negative” (Test System: AMES SALMONELLA TYPHIMURIUM, Strain/Indicator: TA1537, Metabolic Activation: NONE, Method: STANDARD PLATE).
For `c1ccc2c(c1)Oc1ccccc1O2`, the mutagenic call reads like this: (Test System: AMES SALMONELLA TYPHIMURIUM, Strain/Indicator: TA98(1,8-DNP6), Metabolic Activation: RAT, LIVER, S-9, PCB, Method: SUSPENSION) “inactive; negative”; (Test System: AMES SALMONELLA TYPHIMURIUM, Strain/Indicator: TA98(NR), Metabolic Activation: RAT, LIVER, S-9, PCB, Method: SUSPENSION) “inactive; negative”; (Test System: AMES SALMONELLA TYPHIMURIUM, Strain/Indicator: TA98, Metabolic Activation: NONE, Method: SUSPENSION) “inactive; negative”; (Test System: AMES SALMONELLA TYPHIMURIUM, Strain/Indicator: TA98, Metabolic Activation: RAT, LIVER, S-9, PCB, Method: SUSPENSION) “inactive; negative”; (Test System: AMES SALMONELLA TYPHIMURIUM, Strain/Indicator: TA100, Metabolic Activation: NONE, Method: SUSPENSION) “inactive; negative”; (Test System: AMES SALMONELLA TYPHIMURIUM, Strain/Indicator: TA100, Metabolic Activation: RAT, LIVER, S-9, PCB, Method: SUSPENSION) “inactive; negative”.
In the case of `Nc1cc(S(=O)(=O)O)cc2c1C(=O)/C(=N/Nc1ccc(-c3ccc(N/N=C4/C(=O)c5c(N)cc(S(=O)(=O)O)cc5C=C4S(=O)(=O)O)cc3)cc1)C(S(=O)(=O)O)=C2`, the mutagenic call (End Point: IN VITRO CHROMOSOMAL ABERRATIONS, Test System: CHINESE HAMSTER OVARY CELLS, Metabolic Activation: NONE) is “inactive; negative”; the mutagenic call (End Point: IN VITRO CHROMOSOMAL ABERRATIONS, Test System: CHINESE HAMSTER OVARY CELLS, Metabolic Activation: RAT, LIVER, S-9, AROCLOR 1254) was “inactive; negative”; the mutagenic call (Test System: AMES SALMONELLA TYPHIMURIUM, Strain/Indicator: TA98, Metabolic Activation: HAMSTER, LIVER, S-9, Method: PREINCUBATION (PRIVAL METHOD)) was “active; positive”; the mutagenic call under setting [2] was “inactive; negative”; the mutagenic call (Test System: AMES SALMONELLA TYPHIMURIUM, Strain/Indicator: TA98, Metabolic Activation: RAT, LIVER, S-9, PHENOBARBITAL, Method: STANDARD PLATE) was “inactive; negative”; the mutagenic call (Test System: AMES SALMONELLA TYPHIMURIUM, Strain/Indicator: TA100, Metabolic Activation: HAMSTER, LIVER, S-9, Method: PREINCUBATION (PRIVAL METHOD)) was “active; positive”. In addition, the mutagenic call by setting is: under setting [1], “active; positive”; (Test System: AMES SALMONELLA TYPHIMURIUM, Strain/Indicator: TA100, Metabolic Activation: RAT, LIVER, S-9, PHENOBARBITAL, Method: STANDARD PLATE) “inactive; negative”; (Test System: AMES SALMONELLA TYPHIMURIUM, Strain/Indicator: TA1538, Metabolic Activation: RAT, LIVER, S-9, AROCLOR 1254, Method: STANDARD PLATE) “inactive; negative”; (Test System: Mouse lymphoma, Strain/Indicator: L5178Y (tk+/tk-), Metabolic Activation: None, Method: Suspension/plate) “inactive; negative”; (Test System: Mouse lymphoma, Strain/Indicator: L5178Y (tk+/tk-), Metabolic Activation: Rat, Liver, S-9, Aroclor 1254, Method: Suspension/plate) “inactive; equivocal (previous results negative)”.
In the case of `COc1cc(O)c2c(=O)oc3cc(O)cc(C)c3c2c1`, the mutagenic call is, setting by setting: under setting [2], “inactive; negative”; (Test System: AMES SALMONELLA TYPHIMURIUM, Strain/Indicator: TA98, Metabolic Activation: RAT LIVER S-9, AROCLOR 1254, Method: STANDARD PLATE) “inactive; negative”; (Test System: AMES SALMONELLA TYPHIMURIUM, Strain/Indicator: TA98, Metabolic Activation: RAT, LIVER, S-9, AROCLOR 1254, Method: STANDARD PLATE) “inactive; negative”; under setting [1], “inactive; negative”; (Test System: AMES SALMONELLA TYPHIMURIUM, Strain/Indicator: TA100, Metabolic Activation: RAT LIVER S-9, AROCLOR 1254, Method: STANDARD PLATE) “inactive; negative”; under setting [3], “inactive; negative”. Further, the mutagenic call is “inactive; negative. nitrosation did not increase mutagenicity” (Test System: Ames Salmonella typhimurium, Strain/Indicator: TA97, Metabolic Activation: None, Method: Standard plate); “inactive; negative. nitrosation did not increase mutagenicity” (Test System: Ames Salmonella typhimurium, Strain/Indicator: TA97, Metabolic Activation: Rat, Liver, S-9, Aroclor 1254 (10%), Method: Standard plate); “inactive; negative. nitrosation did not increase mutagenicity” (Test System: Ames Salmonella typhimurium, Strain/Indicator: TA102, Metabolic Activation: None, Method: Standard plate); “inactive; negative. nitrosation did not increase mutagenicity” (Test System: Ames Salmonella typhimurium, Strain/Indicator: TA102, Metabolic Activation: Rat, Liver, S-9, Aroclor 1254 (10%), Method: Standard plate); “inactive; negative. nitrosation did not increase mutagenicity” (Test System: Ames Salmonella typhimurium, Strain/Indicator: TA104, Metabolic Activation: None, Method: Standard plate); “inactive; negative. nitrosation did not increase mutagenicity” (Test System: Ames Salmonella typhimurium, Strain/Indicator: TA104, Metabolic Activation: Rat, Liver, S-9, Aroclor 1254 (10%), Method: Standard plate). Besides, the mutagenic call (Test System: E. COLI, Strain/Indicator: ND-160, Metabolic Activation: NONE, Method: STANDARD PLATE) is “active; positive”.
On to `COC[C@@H]1C=C2c3cccc4c3c(cn4C)C[C@H]2N(C)C1`, for which the mutagenic call under setting [3] is “active; positive”.
